Experimental data taken from patent US5942521A, “Quinolinone derivative and anti-allergic agent with said quinolinone derivative as the active ingredient” (Dainippon Ink and Chemicals, Inc., priority 1996, dated 1999).

Experiments:
[1] = test system: passive cutaneous anaphylaxis (PCA) reaction; assay: Effect on homologous passive cutaneous anaphylaxis (PCA) reaction in rats; format: in vivo; conditions: Rattus norvegicus, po, 0.5 h, male wistar rats; for inhibition in vivo at 100 mg/kg: test compounds, 100 mg/kg p.o., 1 hour before induction of anaphylaxis
Protocol: Effect on homologous passive cutaneous anaphylaxis (PCA) reaction in rats
This experimental animal model is caused by immediate type allergic reaction, namely, antigen-antibody reaction. In the following, the method of this pharmacological test will be explained.
Method: Male wistar rats (9 weeks old) were intradermally administered 0.05 ml of anti-serum against dinitrophenylated ascaris (DNP-As) into two sites on the shaved dorsal skin. 48 hours later, aminoquinolinone derivatives (test compounds) suspended in 0.5% methylcellulose (MC) were given orally at a dose of 100 mg/kg to the animals. 1 hour after administration of Test compounds, the animals were induced anaphylaxis by injection of saline (1 ml) dissolving 1 mg of trinitrophenylated ascaris (TNP-As) and 5 mg of Evans Blue into the tail vein of the animals. 30 minutes after induction of anaphylaxis, animals were anesthetized by ether and killed by bleeding, and were flayed dorsal skin. The leakage of dye was assessed by measuring the diameter (mean of shortest and longest diameter) of the blue spot on the inside surface of dorsal skin. As vehicle control group, only 0.5% MC solution was administered orally, and as positive control group, Tranilast suspended in 0.5% MC were administered orally at a dose of 200 mg/kg to the animals with the same method as the test compounds groups, The inhibition (%) of PCA reaction was calculated according to equation 1 and the result was shown in Table 1. Each experimental group consisted of 5 rats.
In the conditions of this experiment, it was considered that the compound, which inhibited PCA reaction by over forty (40) percent against that in vehicle control group, was evidently effective for immediate type allergy.
Inhibition (%)=(A-B)/A×100 (Equation 1)
A: leakage of dye in vehicle control group
B: leakage of dye in test compound group or positive control group

[2] = test system: contact dermatitis induced by picryl chloride; assay: Effect on contact dermatitis induced by picryl chloride in mice; format: in vivo; conditions: for inhibition in vivo at 20 mg/kg: test compounds, 20 mg/kg p.o. 12 hours after challenge
Protocol: Effect on contact dermatitis induced by picryl chloride in mice
The delayed type hypersensitization is inhibited by steroid, but can not be effected by known anti-allergic agents. In the following, the method of the pharmacological test will be explained.
Method: Mice, shaved their abdominal skin on previous day, were immunized by applying 0.1 ml of acetone containing 7 mg of picryl chloride to the skin of the abdomen. 7 days after immunization, the thickness of the ear was measured with a dial thickness gauge, then mice were challenged by painting […] of 1% picryl chloride olive oil solution to each side skin of left ear. 24 hours after challenge, the thickness of the left ear was measured again. The compounds of the present invention (test compounds) suspended in 0.5% MC were forcibly administered orally at a dose of 20 mg/kg 12 hours after challenge. As vehicle control group, only 0.5% MC solution was administered orally, and as positive control group, Prednisolone, steroid hormone, was administered orally at a dose of 10 mg/kg and as negative control group, Tranilast was administered orally at a dose of 200 mg/kg.
Increase (%)=(A-B)/B×100 (Equation 2)
A: thickness of the ear at 24 hours after challenge
B: thickness of the ear before challenge
Inhibition (%)=(C-D)/C×100 (Equation 3)
C: The increase (%) in vehicle control group
D: The increase (%) in test compounds group, positive control group

[3] = Mus musculus, po, ear thickness at 24 hours, read-out: Inhibition (%) of increase of ear thickness

Row | SMILES | inhibition in vivo at 200 mg/kg ([1]; positive control Tranilast, 200 mg/kg p.o.) | inhibition in vivo at 200 mg/kg ([2]; Mus musculus, po, negative control Tranilast, 200 mg/kg p.o., ear thickness at 24 hours, read-out: Inhibition (%) of increase of ear thickness) | inhibition of delayed type hypersensitization (in words) ([2]; Tranilast, 200 mg/kg p.o.) | inhibition in vivo at 100 mg/kg [1] | inhibition in vivo at 20 mg/kg [2, 3]
1 | COc1ccc(/C=C/C(=O)Nc2ccccc2C(=O)O)cc1OC [Tranilast, reference compound] | 54% | 6% | did not inhibit delayed type hypersensitization | – | –
2 | COc1c(OC(C)=O)c(=O)n(C)c2cc(N)ccc12 [compound 6, 7-amino-3-acetoxy-4-methoxy-1-methyl-2(1H)-quinolinone] | – | – | – | 46% | 43%
3 | Cn1c(=O)c(O)c(O)c2ccc(N)cc21 [compound 8, 7-amino-3,4-dihydroxy-1-methyl-2(1H)-quinolinone] | – | – | – | 48% | 41%
4 | CNc1ccc2c(OC)c(OC(C)=O)c(=O)n(C)c2c1 [compound 9] | – | – | – | 45% | 43%
5 | CNc1ccc2c(OC)c(O)c(=O)n(C)c2c1 [compound 10, 7-methylamino-3-hydroxy-4-methoxy-1-methyl-2(1H)-quinolinone] | – | – | – | 42% | 40%
6 | COc1c(O)c(=O)[nH]c2cc(N)ccc12 [compound 14, 7-amino-3-hydroxy-4-methoxy-2(1H)-quinolinone] | – | – | – | 44% | 38%
7 | COc1c(OC(C)=O)c(=O)[nH]c2cc(N)ccc12 [compound 15, 7-amino-3-acetoxy-4-methoxy-2(1H)-quinolinone] | – | – | – | 41% | 40%
8 | CCCCNc1ccc2c(OC)c(OC(C)=O)c(=O)[nH]c2c1 [compound 16, 7-butylamino-3-acetoxy-4-methoxy-2(1H)-quinolinone] | – | – | – | 42% | 36%
9 | CCCCNc1ccc2c(OC)c(O)c(=O)[nH]c2c1 [compound 17, 7-butylamino-3-hydroxy-4-methoxy-2(1H)-quinolinone] | – | – | – | 45% | 43%
10 | COc1c(O)c2ccc(N)cc2n(C)c1=O [compound 19, 7-amino-3-methoxy-4-hydroxy-1-methyl-2(1H)-quinolinone] | – | – | – | 44% | 45%
11 | CCOc1c(OC(C)=O)c(=O)n(C)c2cc(N)ccc12 [compound 20, 7-amino-3-acetoxy-4-ethoxy-1-methyl-2(1H)-quinolinone] | – | – | – | 41% | 43%
12 | CCCCCCCCOc1c(O)c2ccc(N)cc2n(C)c1=O [compound 22, 7-amino-3-octyloxy-4-hydroxy-1-methyl-2(1H)-quinolinone] | – | – | – | 57% | 55%
13 | CCCCCCOc1c(O)c(=O)n(C)c2cc(N)ccc12 [compound 23, 7-amino-3-hydroxy-4-hexyloxy-1-methyl-2(1H)-quinolinone] | – | – | – | 44% | 41%
14 | CCCCCCCCNc1ccc2c(O)c(OC)c(=O)n(C)c2c1 [compound 24, 7-octylamino-3-methoxy-4-hydroxy-1-methyl-2(1H)-quinolinone] | – | – | – | 46% | 44%
15 | CCCCCCOc1c(O)c2ccc(N(C)C)cc2n(C)c1=O [compound 25, 7-dimethylamino-3-hexyloxy-4-hydroxy-1-methyl-2(1H)-quinolinone] | – | – | – | 47% | 48%
16 | CCCCCCCCOc1c(O)c(=O)n(C)c2cc(NC)ccc12 [compound 26, 7-methylamino-3-hydroxy-4-octyloxy-1-methyl-2(1H)-quinolinone] | – | – | – | 41% | 39%
17 | CCCCCCNc1ccc2c(O)c(OC)c(=O)n(C)c2c1 [compound 27, 7-hexylamino-3-methoxy-4-hydroxy-1-methyl-2(1H)-quinolinone] | – | – | – | 45% | 46%
18 | CCCCCCOc1c(O)c(=O)n(C)c2cc(NCCCC)ccc12 [compound 28, 7-butylamino-3-hydroxy-4-hexyloxy-1-methyl-2(1H)-quinolinone] | – | – | – | 42% | 37%
